What was measured:
immature B cells = assay: Apoptosis assay (relative DNA content, propidium iodide flow cytometry) in immature B cells; format: cell-based, mouse; conditions: late-stage immature B cells, 18 hours, anti-IgM F(ab′)2 50 μg/ml plus phorbol ester (PMA 10 ng/ml)
Description: Experiments were performed using an in vitro model system that makes use of an immature population of B cells purified from the spleens of adult mice after sublethal irradiation. Immature B cells obtained from these autoreconstituting mice are phenotypically immature and respond identically to immature B cells purified from either […] bone marrow (Norvell, A. et al. 1995. J. Immunol. 154:4404; Norvell, A. and J. G. Monroe. 1996. J. Immunol. 156:1328). This homogeneous population of immature B cells is devoid of pre-B cells and mature B cells found in neonatal spleen and adult bone marrow, respectively. Further, unlike the immature B cells purified from either bone marrow or neonatal spleen, immature B cells from autoreconstituting mice can be isolated without positive selection on anti-Ig panning plates. Since large numbers of unmanipulated immature B cells can be obtained, autoreconstituting B cells are an ideal system for analyzing biochemical events responsible for tolerogenic signal transduction. The B cells isolated from these mice represent a transitional stage of development in which cells are subject to negative selection. This in vitro system uses apoptosis as an indicator of negative selection.
Purified populations of either immature B cells obtained from the spleens of day 14 autoreconstituting mice or mature B cells isolated from spleens of normal adult mice were incubated in the absence or presence of 50 μg/ml of rabbit anti-mouse IgM F(ab′)2 fragments (anti-Ig) for 16-18 hours. […]
The ability of PMA to protect immature B cells from BCR-induced apoptosis was assessed in the presence of the same two inhibitors. […]
(§1) Purified B cells were cultured under various conditions overnight in either sterile 2 ml click-cap tubes or 96-well plates. […] The cells were stained at 4° C. overnight and analyzed by flow cytometry on a Becton Dickinson FACScan using LYSYS II software. The mean percentages of apoptotic cells and the standard errors for each culture condition were determined and significance was assessed by the Student's t-test.

[1] = test system: PKC-depleted mature B cells; assay: Modified TUNEL analysis of PKC-depleted mature B cells; format: cell-based, mouse
Description: To assess the role of PKC activation in the prevention of antigen-mediated apoptosis, the ability of anti-Ig to induce apoptosis in PKC-depleted mature B cells was determined. […] After overnight treatment, the cells were washed expansively and subjected to an apoptotis analysis in which B cells were recultured with medium alone, anti-Ig, anti-Ig and PMA or anti-Ig and 4αPDD. After 8 hours incubation, the cells were harvested and subjected to a modified TUNEL analysis. […]. After PKC depletion, mature B cells were specifically susceptible to anti-Ig-mediated apoptosis.
In some cases, the frequency of apoptotic cells was quantitated using a modified TUNEL assay. Briefly, 1×10^6 cells were fixed in 2.5% formaldehyde in 1xPBS. The fixed cells were permeabilized in 0.2 ml 0.1% Triton/0.1% citrate for 2 minutes on ice. After washing, cells were incubated in 50 μl of nick translation reagent, which consists of 5 μl nick translation buffer (500 mM Tris, pH 7.5; 100 mM MgSO4; 1 mM DTT), 0.03 μl of fluorescein-dUTP (1 nmol/μl), 1 µl dTTP (0.7 nmol/μl), 1 μl each of dATP, dCTP, dGTP (1 nmol/μl) and 0.1 μl DNA polymerase (5 U/μl) and incubated for at least 1 hour at 37° C. Cells were then washed and analyzed by flow cytometry.

[2] = test system: BCR-induced increase in intracellular calcium; assay: Measurement of intracellular calcium in Fura-2-AM loaded B cells; format: cell-based, mouse
Description: Since PMA was capable of rescuing mature, PKC-depleted B cells from anti-Ig-induced apoptosis, experiments were performed to assess whether PMA was capable of desensitizing the BCR in these cells.
Purified B cells were washed in HBSS without phenol red and supplemented with 2% FCS. For loading, cells were resuspended in HBSS without phenol red and supplemented with 10% FCS. Fura-2 acetoxymethyl ester was added to a final concentration of 1 μM from a 1 mM stock made in DMSO. Cells were incubated in light tight tubes for 30 minutes at 30° C. with occasional inversion. Cells were then washed twice with HEBSS+2% FCS and resuspended at a concentration of 3.3×10^7/ml in HBSS+10% FCS. Fluorometric analysis of dyed cells was performed using a luminescence spectrometer. Excitation was at 340 nm and 380 nM with emission monitored at 510 nm. B cells were diluted to 2×10^6/ml in HBSS and equilibrated for 2 minutes, at which time a baseline spectrum was read. The cells were stimulated with rabbit anti-mouse IgM F(ab′)2 fragments (50 μg/ml) and the response measured. Cells were then lysed with Triton X-100 and Fmax and Fmin were measured by the chelation of extracellular calcium with the addition of EGTA. Calcium traces were calculated by the Intracellular Biochemistry Application (Perkin-Elmer) using these values.

mature B cells = assay: Apoptosis assay (propidium iodide flow cytometry) in mature B cells; format: cell-based, mouse; conditions: inhibitor added 15 minutes before stimulation with anti-Ig
Description: Purified populations of either immature B cells obtained from the spleens of day 14 autoreconstituting mice or mature B cells isolated from spleens of normal adult mice were incubated in the absence or presence of 50 μg/ml of rabbit anti-mouse IgM F(ab′)2 fragments (anti-Ig) for 16-18 hours. […] Similar results were observed using a modified TUNEL technique that detects nicked DNA.
The role of PKC in preventing BCR-induced apoptosis of immature B cells was also examined using inhibitors of PKC.
as §1, with “plates. PKC inhibitors were added 15 minutes before the addition of the stimulant. After 14-18 hours in the case of immature B cells or 24 hours in the case of mature B cells, the cells were harvested and washed in PBS containing 2% FCS. Cells were fixed and permeabilized by resuspending in 70% ethanol made in 1xPBS and incubating at −20° C. for at least 2 hours.” for “plates.”

PKCε = target: T1, PKCε (Mus musculus, UniProt P16054); assay: PKC depletion monitored by Western blot analysis; format: cell-based; conditions: PDBu-treated B cells
T1 construct: endogenous in cells; host or cells: primary mature splenic B cells of mice
T1 sequence (P16054 1-737): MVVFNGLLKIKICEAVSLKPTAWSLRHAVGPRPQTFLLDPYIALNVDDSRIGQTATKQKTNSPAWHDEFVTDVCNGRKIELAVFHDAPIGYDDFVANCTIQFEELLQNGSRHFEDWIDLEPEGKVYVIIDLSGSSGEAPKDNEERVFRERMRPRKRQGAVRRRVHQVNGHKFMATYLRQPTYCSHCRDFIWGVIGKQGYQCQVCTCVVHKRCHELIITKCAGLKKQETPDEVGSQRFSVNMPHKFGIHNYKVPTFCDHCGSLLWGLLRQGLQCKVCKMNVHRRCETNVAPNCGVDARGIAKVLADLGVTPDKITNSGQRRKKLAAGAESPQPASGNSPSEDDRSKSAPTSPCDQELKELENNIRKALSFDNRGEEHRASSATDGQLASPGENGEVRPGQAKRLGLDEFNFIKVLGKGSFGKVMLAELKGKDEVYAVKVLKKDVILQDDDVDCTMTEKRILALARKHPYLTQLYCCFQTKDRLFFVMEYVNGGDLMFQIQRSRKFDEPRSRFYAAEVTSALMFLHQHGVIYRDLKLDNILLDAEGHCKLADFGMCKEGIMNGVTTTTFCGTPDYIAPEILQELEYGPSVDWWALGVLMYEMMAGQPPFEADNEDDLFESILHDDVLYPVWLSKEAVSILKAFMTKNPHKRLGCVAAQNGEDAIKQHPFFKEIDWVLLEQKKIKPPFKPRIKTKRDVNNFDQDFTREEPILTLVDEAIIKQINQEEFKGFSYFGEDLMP
Description: (§2) Therefore, experiments were performed to determine if PKC-depleted mature B cells were susceptible to BCR-induced apoptosis. […] PKC depletion in PDBu- or mock-treated cultures was monitored by Western blot analysis. […] PKC levels in unstimulated immature and mature cells were quite similar, making it unlikely that differential regulation of PKC activity would occur at the level of expression of the individual isoenzyes.
(§3) For analysis of postnuclear extracts, 1×10^7 cells were lysed in 50 μl of Triton-X lysis buffer (0.1% Triton-X-100; 100 mM Tris, pH 8.0; 10.8 μg/ml aprotinin; 1.5 μg/ml each of leupeptin, pepstatin A, chymostatin, and antipain; 2 mM phenylmethylsulfonyl fluoride; 1 mM N-ethylmaleimide) on ice for 30 minutes. Lysates were microcentrifuged at 14,000× g at 4° C. for 10 minutes to remove the Triton-X insoluble fraction. Lysates from equivalent cell numbers were fractionated on SDS-PAGE gels and electroblotted onto Immobilon (Millipore, Bedford, Mass.). Blots were incubated overnight in Tris-buffered saline with Tween-TBST (10 mM Tris, pH 8.0; 137 mM NaCl; 0.05% Tween 20) plus 2% bovine serum albumin to block nonspecific binding. Membranes were washed twice with TBST and probed with the appropriate antibody solutions for 90 minutes, then washed 3 times in TBST, followed by secondary incubation with the appropriate horseradish peroxidase-conjugated reagents. Three washes with TBST were conducted before detection with an enhanced chemiluminescence system.

PKCδ = target: T2, PKCδ (Mus musculus, UniProt P28867); assay: PKC depletion monitored by Western blot analysis; format: cell-based; conditions: PDBu-treated B cells
T2 construct: endogenous in cells; host or cells: primary mature splenic B cells of mice
T2 sequence (P28867 whole entry): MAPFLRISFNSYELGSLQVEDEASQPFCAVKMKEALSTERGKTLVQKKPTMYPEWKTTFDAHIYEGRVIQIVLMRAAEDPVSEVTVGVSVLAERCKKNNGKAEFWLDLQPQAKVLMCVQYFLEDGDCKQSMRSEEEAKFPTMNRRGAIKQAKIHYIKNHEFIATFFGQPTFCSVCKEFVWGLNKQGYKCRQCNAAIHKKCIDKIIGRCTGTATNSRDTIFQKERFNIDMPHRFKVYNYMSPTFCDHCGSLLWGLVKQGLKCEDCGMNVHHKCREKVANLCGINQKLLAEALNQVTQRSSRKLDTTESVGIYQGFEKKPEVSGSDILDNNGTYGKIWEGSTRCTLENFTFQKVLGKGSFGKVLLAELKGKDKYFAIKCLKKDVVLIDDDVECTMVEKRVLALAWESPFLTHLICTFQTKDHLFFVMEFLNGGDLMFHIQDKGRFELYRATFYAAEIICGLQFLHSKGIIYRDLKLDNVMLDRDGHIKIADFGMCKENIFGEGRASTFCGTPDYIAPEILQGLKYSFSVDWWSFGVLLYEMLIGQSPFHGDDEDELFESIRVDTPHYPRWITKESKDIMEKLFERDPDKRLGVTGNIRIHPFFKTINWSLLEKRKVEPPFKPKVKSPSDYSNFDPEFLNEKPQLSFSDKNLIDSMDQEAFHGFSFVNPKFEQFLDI
Description: as §2, §3

PKCβ = target: T3, PKCβ (Mus musculus, UniProt P68404); assay: PKC depletion monitored by Western blot analysis; format: cell-based; conditions: PDBu-treated B cells
T3 construct: endogenous in cells; host or cells: primary mature splenic B cells of mice
T3 sequence (P68404 whole entry): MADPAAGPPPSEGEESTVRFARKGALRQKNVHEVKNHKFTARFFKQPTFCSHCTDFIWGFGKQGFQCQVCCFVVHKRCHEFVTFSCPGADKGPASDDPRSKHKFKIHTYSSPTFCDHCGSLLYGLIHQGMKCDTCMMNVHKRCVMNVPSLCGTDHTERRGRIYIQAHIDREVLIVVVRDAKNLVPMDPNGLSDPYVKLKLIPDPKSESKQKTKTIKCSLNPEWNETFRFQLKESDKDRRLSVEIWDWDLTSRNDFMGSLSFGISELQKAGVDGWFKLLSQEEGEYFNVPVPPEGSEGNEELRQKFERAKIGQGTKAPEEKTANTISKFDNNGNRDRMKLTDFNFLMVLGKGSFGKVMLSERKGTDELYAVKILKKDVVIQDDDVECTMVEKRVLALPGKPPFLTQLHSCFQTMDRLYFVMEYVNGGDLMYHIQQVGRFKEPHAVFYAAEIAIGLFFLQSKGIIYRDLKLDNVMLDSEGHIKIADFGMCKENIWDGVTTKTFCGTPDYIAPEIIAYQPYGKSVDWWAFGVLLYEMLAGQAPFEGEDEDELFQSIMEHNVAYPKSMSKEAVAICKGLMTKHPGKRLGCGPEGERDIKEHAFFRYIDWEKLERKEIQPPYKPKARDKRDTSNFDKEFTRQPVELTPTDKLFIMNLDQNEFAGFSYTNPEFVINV
Description: as §2, §3

CCCCCCCCCC(=O)O[C@@H]1[C@@H](C)[C@@]2(O)[C@@H](C=C(CO)C[C@@]3(O)C(=O)C(C)=C[C@@H]23)[C@@H]2C(C)(C)[C@]12OC(=O)CCCCCCCCC [4αPDD]
protection (rescue) from anti-IgM-induced apoptosis (immature B cells): efficiently rescued cells

CCCCCCCCCCCCCC(=O)O[C@@H]1[C@@H](C)[C@@]2(O)[C@@H](C=C(CO)C[C@]3(O)C(=O)C(C)=C[C@@H]23)[C@@H]2C(C)(C)[C@]12OC(C)=O [PMA]
protection (rescue) from anti-IgM-induced apoptosis (immature B cells): significant protection from anti-IgM-induced apoptosis | rescue from anti-Ig-induced apoptosis ([1]; PDBu-treated (PKC-depleted) mature B cells, anti-Ig and PMA, 8 hours): still capable of rescuing the cells from anti-Ig-induced apoptosis | effect on BCR-induced calcium flux ([2]; PDBu-treated cells): did not alter the BCR-induced calcium flux | effect on BCR-induced increase in intracellular calcium ([2]; mock-treated B cells): efficiently reduced the BCR-induced increase in intracellular calcium

CCCCCCCCCC(=O)O[C@@H]1[C@@H](C)[C@@]2(O)[C@@H](C=C(CO)C[C@]3(O)C(=O)C(C)=C[C@@H]23)[C@@H]2C(C)(C)[C@]12OC(=O)CCCCCCCCC [4βPDD]
protection (rescue) from anti-IgM-induced apoptosis (immature B cells): did not rescue cells

CN(C)C[C@H]1CCn2c(c(C3=C(c4cn(C)c5ccccc45)C(=O)NC3=O)c3ccccc32)C1 [Ro-32-0432]
induction of apoptosis (mature B cells): led to induction of apoptosis

CN(C)CCCn1cc(C2=C(c3c[nH]c4ccccc34)C(=O)NC2=O)c2ccccc21 [bisindoylmaleimide I]
induction of apoptosis (mature B cells): led to induction of apoptosis

CCCC(=O)O[C@@H]1[C@@H](C)[C@@]2(O)[C@@H](C=C(CO)C[C@]3(O)C(=O)C(C)=C[C@@H]23)[C@@H]2C(C)(C)[C@]12OC(=O)CCC [PDBu]
depletion of PKCε (PKCε): also depleted, although not as efficiently | depletion of PKCδ (PKCδ): also depleted, although not as efficiently | depletion of PKCβ (PKCβ): efficiently depleted | number of apoptotic cells after anti-Ig ([1]; mature B cells cultured overnight with 100 ng/ml PDBu, washed, recultured 8 hours with anti-Ig): significant and striking increase in the number of apoptotic cells

Source: patent US20020019332A1, “METHOD OF INDUCING APOPTOSIS IN B-LYMPHOCYTES” (priority 1999, published 2002)
